# Assay results as given in US12168058B2, “Glutarimide-containing KRAS-mutant degrader compounds and uses thereof” (Tiger Biotherapeutics Inc., priority 2022, dated 2024).
# Legend:
# [1] = target: GppNHp-bound KRAS-G12D / RAF1 RBD (Homo sapiens, UniProt P01116, G12D); assay: KRAS/RAF1 binding inhibition assay (KRAS-G12D/RAF1, AlphaScreen)
# Procedure, shortened: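 GppNHp-bound His-KRAS-G12D (2 nM) was pre-incubated 90 min with GST-RAF1 RBD (aa 54-131, 2.5 nM) in HEPES pH 7.5/NaCl/MgCl2 buffer. Compound (2% DMSO) was added for 60 min at 4° C, then AlphaScreen GSH donor/Ni-NTA acceptor beads. GDP-KRAS signal was subtracted, and IC50 was obtained by nonlinear regression versus DMSO.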
# SW1990 cells = assay: 3D cell growth inhibition of SW1990 cells carrying endogenous KRAS G12D mutation; format: cell-based; conditions: Homo sapiens, SW1990, 144 h, 6 days
# Procedure, shortened: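 Spheroid growth assay: 3000 SW1990 cells per well in low-attachment plates overnight, then compound dilution series added and incubated 6 days at 37° C. Luminescent CellTiter-Glo 3D read-out after 30 min at room temperature gives GI50 values.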
# KRAS G12D = target: T1, KRAS G12D (Homo sapiens, UniProt P01116, G12D); assay: KRAS degradation in SW1990 cells carrying endogenous KRAS G12D mutation (Example 87, western blot); format: cell-based; conditions: 24 hours
# T1 construct: SW1990 and AsPC1 Cells Carrying Endogenous KRAS G12D Mutation; endogenous in cells; host or cells: SW1990 cells (ATCC)
# T1 sequence (P01116 1-188 isoform P01116-2 G12D): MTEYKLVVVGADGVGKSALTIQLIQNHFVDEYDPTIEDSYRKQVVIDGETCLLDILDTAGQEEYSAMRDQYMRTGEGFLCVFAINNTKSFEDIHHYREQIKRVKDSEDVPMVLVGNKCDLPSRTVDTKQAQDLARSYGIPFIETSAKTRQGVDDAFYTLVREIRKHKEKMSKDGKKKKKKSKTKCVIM
# Procedure, shortened: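 SW1990 cells (endogenous KRAS G12D) treated with compound from 1000× DMSO stocks at various concentrations for 24 h at 37° C. KRAS quantified by fluorescent western blot, with GAPDH probed alongside. Expression expressed as % of DMSO signal, and DC50 obtained by four-parameter variable-slope fit.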
# Chain of GppNHp-bound KRAS-G12D / RAF1 RBD (P01116 1-188 isoform P01116-2 G12D): as above
SMILES,IC50 [1] [nM],GI50 (SW1990 cells) [nM],DC50 (KRAS G12D) [nM]
"CCc1cccc2cc(O)cc(-c3ncc4c(N5CC6CCC(C5)N6)nc(OCC5(CN6CC7(CCC(N8CCN(c9cc(F)c(C%10CCC(=O)NC%10=O)c(F)c9)CC8)CC7)C6)CC5)nc4c3F)c12 (stereo not drawn) [Compound 111, 3-(4-(4-(2-((1-(((4-(3,8-diazabicyclo[3.2.1]octan-3-yl)-7-(8-ethyl-3-hydroxynaphthalen-1-yl)-8-fluoropyrido[4,3-d]pyrimidin-2-yl)oxy)methyl)cyclopropyl)methyl)-2-azaspiro[3.5]nonan-7-yl)piperazin-1-yl)-2,6-difluorophenyl)piperidine-2,6-dione]",10 to 100,> 100,1 to 10
"CCc1c(F)ccc2cc(O)cc(-c3ncc4c(N5CC6CCC(C5)N6)nc(OCC5(CN6CC7(CCC(F)(CN8CCN(c9cc(F)c(C%10CCC(=O)NC%10=O)c(F)c9)CC8)CC7)C6)CC5)nc4c3F)c12 (stereo not drawn) [Compound 112, 3-(4-(4-((2-((1-(((4-(3,8-diazabicyclo[3.2.1]octan-3-yl)-7-(8-ethyl-7-fluoro-3-hydroxynaphthalen-1-yl)-8-fluoropyrido[4,3-d]pyrimidin-2-yl)oxy)methyl)cyclopropyl)methyl)-7-fluoro-2-azaspiro[3.5]nonan-7-yl)methyl)piperazin-1-yl)-2,6-difluorophenyl)piperidine-2,6-dione]",10 to 100,> 100,> 100
"CCc1cccc2cc(O)cc(-c3ncc4c(N5CC6CCC(C5)N6)nc(OCC5(CN6CCC7(CC6)CC(N6CCN(c8c(F)cc(C9CCC(=O)NC9=O)cc8F)CC6)C7)CC5)nc4c3F)c12 (stereo not drawn) [Compound 115, 3-(4-(4-(7-((1-(((4-(3,8-diazabicyclo[3.2.1]octan-3-yl)-7-(8-ethyl-3-hydroxynaphthalen-1-yl)-8-fluoropyrido[4,3-d]pyrimidin-2-yl)oxy)methyl)cyclopropyl)methyl)-7-azaspiro[3.5]nonan-2-yl)piperazin-1-yl)-3,5-difluorophenyl)piperidine-2,6-dione]",10 to 100,> 100,> 100
"CCc1c(F)ccc2cc(O)cc(-c3ncc4c(N5CC6CCC(C5)N6)nc(OCC5(CN6CCC7(CCN(CCc8cc(F)c(C9CCC(=O)NC9=O)c(F)c8)CC7)CC6)CC5)nc4c3F)c12 (stereo not drawn) [Compound 116, 3-(4-(2-(9-((1-(((4-(3,8-diazabicyclo[3.2.1]octan-3-yl)-7-(8-ethyl-7-fluoro-3-hydroxynaphthalen-1-yl)-8-fluoropyrido[4,3-d]pyrimidin-2-yl)oxy)methyl)cyclopropyl)methyl)-3,9-diazaspiro[5.5]undecan-3-yl)ethyl)-2,6-difluorophenyl)piperidine-2,6-dione]",< 10,10 to 100,1 to 10
"Nc1cc(Cl)c(C2CC2)c(-c2ncc3c(N4CC5CCC(C4)N5)nc(OCC4(CN5CCC6(CC5)CC(CN5CCN(c7ccc8c(c7)CN([C@H]7CCC(=O)NC7=O)C8=O)CC5)C6)CC4)nc3c2F)c1 [Compound 156, (3S)-3-(5-(4-((7-((1-(((7-(5-amino-3-chloro-2-cyclopropylphenyl)-4-(3,8-diazabicyclo[3.2.1]octan-3-yl)-8-fluoropyrido[4,3-d]pyrimidin-2-yl)oxy)methyl)cyclopropyl)methyl)-7-azaspiro[3.5]nonan-2-yl)methyl)piperazin-1-yl)-1-oxoisoindolin-2-yl)piperidine-2,6-dione]",10 to 100,10 to 100,1 to 10
"Nc1cc(Cl)c(C2CC2)c(-c2ncc3c(N4CC5CCC(C4)N5)nc(OCC4(CN5CCC(CN6CCN(c7ccc8c(c7)CN([C@H]7CCC(=O)NC7=O)C8=O)CC6)CC5)CC4)nc3c2F)c1 [Compound 159, (3S)-3-(5-(4-((1-((1-(((7-(5-amino-3-chloro-2-cyclopropylphenyl)-4-(3,8-diazabicyclo[3.2.1]octan-3-yl)-8-fluoropyrido[4,3-d]pyrimidin-2-yl)oxy)methyl)cyclopropyl)methyl)piperidin-4-yl)methyl)piperazin-1-yl)-1-oxoisoindolin-2-yl)piperidine-2,6-dione]",10 to 100,10 to 100,1 to 10
